# According to ChEMBL document CHEMBL5154811, “Discovery of SPH5030, a Selective, Potent, and Irreversible Tyrosine Kinase Inhibitor for HER2-Amplified and HER2-Mutant Cancer Treatment” (J Med Chem, 2022):
# System: not listed separately
# Experiment: AUC (0 to t) in Sprague-Dawley rat at 10 mg/kg, po measured upto 1440 mins by LC/MS/MS analysis
# Type: ADME, organism-based
# Design: dose 10 mg/kg, time < 1440 min, route po
# Settings: in vivo
row,AUC(0-t) at 24 h,Structure (SMILES)
1,170 ng·h/mL,CCOc1cc2ncnc(Nc3ccc(Oc4cc5nncn5cn4)c(C)c3)c2cc1NC(=O)/C(F)=C\[C@@H]1CCCN1C

# System: not listed separately
# Experiment: Tmax in Sprague-Dawley rat at 10 mg/kg, po measured upto 1440 mins by LC/MS/MS analysis
# Type: ADME, organism-based
# Settings: in vivo
row,Tmax,Structure (SMILES)
1,2.67 h,CCOc1cc2ncnc(Nc3ccc(Oc4cc5nncn5cn4)c(C)c3)c2cc1NC(=O)/C(F)=C\[C@@H]1CCCN1C

# Target: Receptor tyrosine-protein kinase erbB-2 (Homo sapiens, UniProt P04626)
# Sequence (P04626 whole entry): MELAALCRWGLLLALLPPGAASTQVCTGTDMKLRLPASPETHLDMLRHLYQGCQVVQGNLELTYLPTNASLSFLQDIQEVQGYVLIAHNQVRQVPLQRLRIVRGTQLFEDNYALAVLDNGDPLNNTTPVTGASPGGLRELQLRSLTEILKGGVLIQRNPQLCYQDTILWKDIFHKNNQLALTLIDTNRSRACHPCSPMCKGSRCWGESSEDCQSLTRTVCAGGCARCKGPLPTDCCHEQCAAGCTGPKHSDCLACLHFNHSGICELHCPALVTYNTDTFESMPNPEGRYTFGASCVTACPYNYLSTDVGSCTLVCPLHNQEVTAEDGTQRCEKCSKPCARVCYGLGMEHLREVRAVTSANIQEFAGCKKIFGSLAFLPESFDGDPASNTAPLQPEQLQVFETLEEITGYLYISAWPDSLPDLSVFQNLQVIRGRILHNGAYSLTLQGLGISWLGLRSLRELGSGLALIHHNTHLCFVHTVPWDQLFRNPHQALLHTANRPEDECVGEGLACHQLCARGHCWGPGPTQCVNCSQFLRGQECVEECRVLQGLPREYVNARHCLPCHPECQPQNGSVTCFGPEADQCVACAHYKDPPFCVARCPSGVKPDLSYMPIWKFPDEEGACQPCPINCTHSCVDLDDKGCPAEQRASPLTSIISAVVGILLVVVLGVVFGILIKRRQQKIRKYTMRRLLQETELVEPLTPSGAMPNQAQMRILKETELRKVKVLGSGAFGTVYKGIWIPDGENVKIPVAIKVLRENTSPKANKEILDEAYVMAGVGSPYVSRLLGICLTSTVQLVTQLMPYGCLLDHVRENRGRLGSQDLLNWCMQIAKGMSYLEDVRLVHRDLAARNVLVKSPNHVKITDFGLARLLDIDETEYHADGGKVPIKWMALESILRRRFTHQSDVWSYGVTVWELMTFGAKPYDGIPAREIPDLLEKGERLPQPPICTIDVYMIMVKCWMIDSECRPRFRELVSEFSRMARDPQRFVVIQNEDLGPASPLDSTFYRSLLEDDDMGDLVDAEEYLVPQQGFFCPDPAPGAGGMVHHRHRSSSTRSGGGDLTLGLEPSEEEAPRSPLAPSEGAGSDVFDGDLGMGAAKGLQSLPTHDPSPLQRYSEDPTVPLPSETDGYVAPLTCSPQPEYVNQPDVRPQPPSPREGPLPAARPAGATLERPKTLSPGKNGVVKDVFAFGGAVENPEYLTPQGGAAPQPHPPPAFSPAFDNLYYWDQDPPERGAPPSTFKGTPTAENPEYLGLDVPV
# Experiment: Inhibition of wild type human GST-tagged HER2 (676 to end residues) expressed in baculovirus infected Sf9 cells incubated for 30 mins in presence of ATP by HTRF analysis
# Settings: not given
row,IC50,Structure (SMILES)
1,3.68 nM,CCOc1cc2ncnc(Nc3ccc(Oc4cc5nncn5cn4)c(C)c3)c2cc1NC(=O)/C(F)=C\[C@@H]1CCCN1C

# System: BT-474
# Experiment: Antiproliferative activity against human BT-474 cells assessed as inhibition of cell growth incubated for 72 hrs by Celltiter-Glo assay
# Type: functional, cell-based
# Settings: BT-474, 72 h
row,IC50,Structure (SMILES)
1,1.75 nM,CCOc1cc2ncnc(Nc3ccc(Oc4cc5nncn5cn4)c(C)c3)c2cc1NC(=O)/C(F)=C\[C@@H]1CCCN1C

# System: NCI-N87
# Experiment: Antiproliferative activity against human NCI-N87 cells assessed as inhibition of cell growth incubated for 72 hrs by Celltiter-Glo assay
# Type: functional, cell-based
# Settings: NCI-N87, 72 h
row,Structure (SMILES),IC50
1,CCOc1cc2ncnc(Nc3ccc(Oc4cc5nncn5cn4)c(C)c3)c2cc1NC(=O)/C(F)=C\[C@@H]1CCCN1C,0.56 nM

# System: not listed separately
# Experiment: Volume of distribution at steady state in Sprague-Dawley rat at 3 mg/kg, iv measured upto 1440 mins by LC/MS/MS analysis
# Type: ADME, organism-based
# Settings: in vivo, read-out: Vdss
row,Vd,Structure (SMILES)
1,23.6 L/kg,CCOc1cc2ncnc(Nc3ccc(Oc4cc5nncn5cn4)c(C)c3)c2cc1NC(=O)/C(F)=C\[C@@H]1CCCN1C

# System: not listed separately
# Experiment: Oral bioavailability in ICR mouse at 10 mg/kg measured upto 1440 mins by LC/MS/MS analysis
# Type: ADME, organism-based
# Settings: in vivo
row,bioavailability,Structure (SMILES)
1,34.4%,CCOc1cc2ncnc(Nc3ccc(Oc4cc5nncn5cn4)c(C)c3)c2cc1NC(=O)/C(F)=C\[C@@H]1CCCN1C

# System: not listed separately
# Experiment: Half life in ICR mouse at 10 mg/kg, po measured upto 1440 mins by LC/MS/MS analysis
# Type: ADME, organism-based
# Settings: in vivo
row,half-life,Structure (SMILES)
1,0.87 h,CCOc1cc2ncnc(Nc3ccc(Oc4cc5nncn5cn4)c(C)c3)c2cc1NC(=O)/C(F)=C\[C@@H]1CCCN1C

# System: not listed separately
# Experiment: Half life in Sprague-Dawley rat at 10 mg/kg, po measured upto 1440 mins by LC/MS/MS analysis
# Type: ADME, organism-based
# Settings: in vivo
row,half-life,Structure (SMILES)
1,4.14 h,CCOc1cc2ncnc(Nc3ccc(Oc4cc5nncn5cn4)c(C)c3)c2cc1NC(=O)/C(F)=C\[C@@H]1CCCN1C

# System: not listed separately
# Experiment: Clearance in ICR mouse at 3 mg/kg, iv measured upto 1440 mins by LC/MS/MS analysis
# Type: ADME, organism-based
# Settings: in vivo
row,clearance,Structure (SMILES)
1,90 mL/min/kg,CCOc1cc2ncnc(Nc3ccc(Oc4cc5nncn5cn4)c(C)c3)c2cc1NC(=O)/C(F)=C\[C@@H]1CCCN1C

# System: not listed separately
# Experiment: Oral bioavailability in Sprague-Dawley rat at 10 mg/kg measured upto 1440 mins by LC/MS/MS analysis
# Type: ADME, organism-based
# Settings: in vivo
row,bioavailability,Structure (SMILES)
1,13.7%,CCOc1cc2ncnc(Nc3ccc(Oc4cc5nncn5cn4)c(C)c3)c2cc1NC(=O)/C(F)=C\[C@@H]1CCCN1C

# Target: Epidermal growth factor receptor (Homo sapiens, UniProt P00533)
# Sequence (P00533 whole entry, the tested form may be a part): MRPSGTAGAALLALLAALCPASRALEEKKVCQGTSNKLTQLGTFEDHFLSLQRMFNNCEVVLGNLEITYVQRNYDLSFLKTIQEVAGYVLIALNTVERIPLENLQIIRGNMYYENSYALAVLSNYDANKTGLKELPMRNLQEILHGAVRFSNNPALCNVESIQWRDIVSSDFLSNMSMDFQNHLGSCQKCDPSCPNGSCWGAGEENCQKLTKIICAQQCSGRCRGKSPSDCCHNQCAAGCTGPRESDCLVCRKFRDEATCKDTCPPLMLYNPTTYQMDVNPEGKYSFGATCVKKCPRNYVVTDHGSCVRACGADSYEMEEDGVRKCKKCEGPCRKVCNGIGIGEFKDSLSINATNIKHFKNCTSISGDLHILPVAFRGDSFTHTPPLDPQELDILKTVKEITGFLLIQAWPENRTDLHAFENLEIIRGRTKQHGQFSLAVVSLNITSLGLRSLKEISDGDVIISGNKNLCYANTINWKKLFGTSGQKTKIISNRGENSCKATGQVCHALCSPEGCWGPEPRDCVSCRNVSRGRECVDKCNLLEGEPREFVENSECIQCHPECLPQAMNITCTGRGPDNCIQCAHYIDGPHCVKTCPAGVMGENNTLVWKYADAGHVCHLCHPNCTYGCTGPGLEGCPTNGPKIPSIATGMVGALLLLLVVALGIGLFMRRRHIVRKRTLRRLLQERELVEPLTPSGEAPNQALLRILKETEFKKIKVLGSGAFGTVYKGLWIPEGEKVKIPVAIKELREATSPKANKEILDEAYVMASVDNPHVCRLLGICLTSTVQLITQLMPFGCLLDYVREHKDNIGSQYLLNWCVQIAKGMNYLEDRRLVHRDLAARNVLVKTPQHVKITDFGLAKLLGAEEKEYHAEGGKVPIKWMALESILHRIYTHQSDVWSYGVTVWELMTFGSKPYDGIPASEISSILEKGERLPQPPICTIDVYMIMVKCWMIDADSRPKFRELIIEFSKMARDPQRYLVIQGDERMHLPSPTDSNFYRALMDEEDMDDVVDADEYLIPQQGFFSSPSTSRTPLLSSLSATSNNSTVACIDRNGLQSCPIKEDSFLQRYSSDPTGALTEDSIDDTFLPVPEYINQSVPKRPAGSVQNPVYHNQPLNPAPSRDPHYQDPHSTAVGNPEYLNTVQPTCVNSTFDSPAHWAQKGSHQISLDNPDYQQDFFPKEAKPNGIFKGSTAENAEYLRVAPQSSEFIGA
# Experiment: Inhibition of wild type human N-terminal GST tagged EGFR (669 to 1210 residues) expressed in Sf21 insect cells incubated for 30 mins in presence of ATP by HTRF analysis
# Settings: not given
row,IC50,Structure (SMILES)
1,25.9 nM,CCOc1cc2ncnc(Nc3ccc(Oc4cc5nncn5cn4)c(C)c3)c2cc1NC(=O)/C(F)=C\[C@@H]1CCCN1C

# System: not listed separately
# Experiment: AUC (0 to t) in ICR mouse at 10 mg/kg, po measured upto 1440 mins by LC/MS/MS analysis
# Type: ADME, organism-based
# Design: time < 1440 min, dose 10 mg/kg, route po
# Settings: in vivo
row,AUC(0-t) at 24 h,Structure (SMILES)
1,630 ng·h/mL,CCOc1cc2ncnc(Nc3ccc(Oc4cc5nncn5cn4)c(C)c3)c2cc1NC(=O)/C(F)=C\[C@@H]1CCCN1C

# System: not listed separately
# Experiment: Clearance in Sprague-Dawley rat at 3 mg/kg, iv measured upto 1440 mins by LC/MS/MS analysis
# Type: ADME, organism-based
# Settings: in vivo
row,clearance,Structure (SMILES)
1,80.8 mL/min/kg,CCOc1cc2ncnc(Nc3ccc(Oc4cc5nncn5cn4)c(C)c3)c2cc1NC(=O)/C(F)=C\[C@@H]1CCCN1C

# System: not listed separately
# Experiment: Cmax in Sprague-Dawley rat at 10 mg/kg, po measured upto 1440 mins by LC/MS/MS analysis
# Type: ADME, organism-based
# Design: time < 1440 min, dose 10 mg/kg, route po
# Settings: in vivo
row,Cmax,Structure (SMILES)
1,30 ng/mL,CCOc1cc2ncnc(Nc3ccc(Oc4cc5nncn5cn4)c(C)c3)c2cc1NC(=O)/C(F)=C\[C@@H]1CCCN1C

# System: not listed separately
# Experiment: Half life in Sprague-Dawley rat at 3 mg/kg, iv measured upto 1440 mins by LC/MS/MS analysis
# Type: ADME, organism-based
# Settings: in vivo
row,half-life,Structure (SMILES)
1,6.62 h,CCOc1cc2ncnc(Nc3ccc(Oc4cc5nncn5cn4)c(C)c3)c2cc1NC(=O)/C(F)=C\[C@@H]1CCCN1C

# System: not listed separately
# Experiment: Cmax in ICR mouse at 10 mg/kg, po measured upto 1440 mins by LC/MS/MS analysis
# Type: ADME, organism-based
# Design: dose 10 mg/kg, time < 1440 min, route po
# Settings: in vivo
row,Cmax,Structure (SMILES)
1,290 ng/mL,CCOc1cc2ncnc(Nc3ccc(Oc4cc5nncn5cn4)c(C)c3)c2cc1NC(=O)/C(F)=C\[C@@H]1CCCN1C

# System: not listed separately
# Experiment: Tmax in ICR mouse at 10 mg/kg, po measured upto 1440 mins by LC/MS/MS analysis
# Type: ADME, organism-based
# Settings: in vivo
row,Tmax,Structure (SMILES)
1,0.42 h,CCOc1cc2ncnc(Nc3ccc(Oc4cc5nncn5cn4)c(C)c3)c2cc1NC(=O)/C(F)=C\[C@@H]1CCCN1C

# System: not listed separately
# Experiment: Volume of distribution at steady state in ICR mouse at 3 mg/kg, iv measured upto 1440 mins by LC/MS/MS analysis
# Type: ADME, organism-based
# Settings: in vivo, read-out: Vdss
row,Vd,Structure (SMILES)
1,4.49 L/kg,CCOc1cc2ncnc(Nc3ccc(Oc4cc5nncn5cn4)c(C)c3)c2cc1NC(=O)/C(F)=C\[C@@H]1CCCN1C

# System: not listed separately
# Experiment: Half life in ICR mouse at 3 mg/kg, iv measured upto 1440 mins by LC/MS/MS analysis
# Type: ADME, organism-based
# Settings: in vivo
row,half-life,Structure (SMILES)
1,1.16 h,CCOc1cc2ncnc(Nc3ccc(Oc4cc5nncn5cn4)c(C)c3)c2cc1NC(=O)/C(F)=C\[C@@H]1CCCN1C
